Reference: PubChem BioAssay AID1259407 (Chemical Carcinogenesis Research Information System (CCRIS), 2018)
Active and inactive are the calls of the source. No rule for the calls is given here.

Test system: CCRIS mutagenicity, Ames/micronucleus/aberration tests
Test: CCRIS mutagenicity studies

**Q.** Which results are given for NCc1cccc(CN)c1?
**A.** mutagenic call (Test System: AMES SALMONELLA TYPHIMURIUM, Strain/Indicator: TA98, Metabolic Activation: HAMSTER, LIVER, S-9, AROCLOR 1254, Method: STANDARD PLATE): inactive; negative; mutagenic call (Test System: AMES SALMONELLA TYPHIMURIUM, Strain/Indicator: TA98, Metabolic Activation: NONE, Method: PREINCUBATION): inactive; negative; mutagenic call (Test System: AMES SALMONELLA TYPHIMURIUM, Strain/Indicator: TA98, Metabolic Activation: NONE, Method: STANDARD PLATE): inactive; negative; mutagenic call (Test System: AMES SALMONELLA TYPHIMURIUM, Strain/Indicator: TA98, Metabolic Activation: RAT, LIVER, S-9, AROCLOR 1254, Method: STANDARD PLATE): inactive; negative; mutagenic call (Test System: AMES SALMONELLA TYPHIMURIUM, Strain/Indicator: TA98, Metabolic Activation: RAT, LIVER, S-9, PCB, Method: PREINCUBATION): inactive; negative; mutagenic call (Test System: AMES SALMONELLA TYPHIMURIUM, Strain/Indicator: TA98, Metabolic Activation: RAT, LIVER, S-9, PHENOBARBITAL AND BETA-NAPHTHOFLAVONE, Method: PREINCUBATION): inactive; negative; mutagenic call (Test System: AMES SALMONELLA TYPHIMURIUM, Strain/Indicator: TA100, Metabolic Activation: HAMSTER, LIVER, S-9, AROCLOR 1254, Method: STANDARD PLATE): inactive; negative; mutagenic call (Test System: AMES SALMONELLA TYPHIMURIUM, Strain/Indicator: TA100, Metabolic Activation: NONE, Method: PREINCUBATION): inactive; negative; mutagenic call (Test System: AMES SALMONELLA TYPHIMURIUM, Strain/Indicator: TA100, Metabolic Activation: NONE, Method: STANDARD PLATE): inactive; negative; mutagenic call (Test System: AMES SALMONELLA TYPHIMURIUM, Strain/Indicator: TA100, Metabolic Activation: RAT, LIVER, S-9, AROCLOR 1254, Method: STANDARD PLATE): inactive; negative; mutagenic call (Test System: AMES SALMONELLA TYPHIMURIUM, Strain/Indicator: TA100, Metabolic Activation: RAT, LIVER, S-9, PCB, Method: PREINCUBATION): inactive; negative; mutagenic call (Test System: AMES SALMONELLA TYPHIMURIUM, Strain/Indicator: TA100, Metabolic Activation: RAT, LIVER, S-9, PHENOBARBITAL AND BETA-NAPHTHOFLAVONE, Method: PREINCUBATION): inactive; negative; mutagenic call (Test System: AMES SALMONELLA TYPHIMURIUM, Strain/Indicator: TA102, Metabolic Activation: NONE, Method: PREINCUBATION): inactive; negative; mutagenic call (Test System: AMES SALMONELLA TYPHIMURIUM, Strain/Indicator: TA102, Metabolic Activation: RAT, LIVER, S-9, SODIUM PHENOBARBITAL AND 5,6-BENZOFLAVONE, Method: PREINCUBATION): inactive; negative; mutagenic call (Test System: AMES SALMONELLA TYPHIMURIUM, Strain/Indicator: TA104, Metabolic Activation: NONE, Method: PREINCUBATION): inactive; negative; mutagenic call (Test System: AMES SALMONELLA TYPHIMURIUM, Strain/Indicator: TA104, Metabolic Activation: RAT, LIVER, S-9, SODIUM PHENOBARBITAL AND 5,6-BENZOFLAVONE, Method: PREINCUBATION): inactive; negative; mutagenic call (Test System: AMES SALMONELLA TYPHIMURIUM, Strain/Indicator: TA1535, Metabolic Activation: HAMSTER, LIVER, S-9, AROCLOR 1254, Method: STANDARD PLATE): inactive; negative; mutagenic call (Test System: AMES SALMONELLA TYPHIMURIUM, Strain/Indicator: TA1535, Metabolic Activation: NONE, Method: PREINCUBATION): inactive; negative; mutagenic call (Test System: AMES SALMONELLA TYPHIMURIUM, Strain/Indicator: TA1535, Metabolic Activation: NONE, Method: STANDARD PLATE): inactive; negative; mutagenic call (Test System: AMES SALMONELLA TYPHIMURIUM, Strain/Indicator: TA1535, Metabolic Activation: RAT, LIVER, S-9, AROCLOR 1254, Method: STANDARD PLATE): inactive; negative; mutagenic call (Test System: AMES SALMONELLA TYPHIMURIUM, Strain/Indicator: TA1535, Metabolic Activation: RAT, LIVER, S-9, PHENOBARBITAL AND BETA-NAPHTHOFLAVONE, Method: PREINCUBATION): inactive; negative; mutagenic call (Test System: AMES SALMONELLA TYPHIMURIUM, Strain/Indicator: TA1537, Metabolic Activation: HAMSTER, LIVER, S-9, AROCLOR 1254, Method: STANDARD PLATE): inactive; negative; mutagenic call (Test System: AMES SALMONELLA TYPHIMURIUM, Strain/Indicator: TA1537, Metabolic Activation: NONE, Method: PREINCUBATION): inactive; negative; mutagenic call (Test System: AMES SALMONELLA TYPHIMURIUM, Strain/Indicator: TA1537, Metabolic Activation: NONE, Method: STANDARD PLATE): inactive; negative; mutagenic call (Test System: AMES SALMONELLA TYPHIMURIUM, Strain/Indicator: TA1537, Metabolic Activation: RAT, LIVER, S-9, AROCLOR 1254, Method: STANDARD PLATE): inactive; negative; mutagenic call (Test System: AMES SALMONELLA TYPHIMURIUM, Strain/Indicator: TA1537, Metabolic Activation: RAT, LIVER, S-9, PHENOBARBITAL AND BETA-NAPHTHOFLAVONE, Method: PREINCUBATION): inactive; negative; mutagenic call (Test System: AMES SALMONELLA TYPHIMURIUM, Strain/Indicator: TA1538, Metabolic Activation: HAMSTER, LIVER, S-9, AROCLOR 1254, Method: STANDARD PLATE): inactive; negative; mutagenic call (Test System: AMES SALMONELLA TYPHIMURIUM, Strain/Indicator: TA1538, Metabolic Activation: NONE, Method: STANDARD PLATE): inactive; negative; mutagenic call (Test System: AMES SALMONELLA TYPHIMURIUM, Strain/Indicator: TA1538, Metabolic Activation: RAT, LIVER, S-9, AROCLOR 1254, Method: STANDARD PLATE): inactive; negative; mutagenic call (Test System: E. COLI, Strain/Indicator: WP2UVRA/PKM101, Metabolic Activation: NONE, Method: PREINCUBATION): inactive; negative; mutagenic call (Test System: E. COLI, Strain/Indicator: WP2UVRA/PKM101, Metabolic Activation: RAT, LIVER, S-9, PHENOBARBITAL AND BETA-NAPHTHOFLAVONE, Method: PREINCUBATION): inactive; negative; mutagenic call (Test System: E. COLI, Strain/Indicator: WP2UVRA/PKM101, Metabolic Activation: RAT, LIVER, S-9, SODIUM PHENOBARBITAL AND 5,6-BENZOFLAVONE, Method: PREINCUBATION): inactive; negative; mutagenic call (Test System: E. COLI, Strain/Indicator: WP2UVRA, Metabolic Activation: NONE, Method: PREINCUBATION): inactive; negative; mutagenic call (Test System: E. COLI, Strain/Indicator: WP2UVRA, Metabolic Activation: RAT, LIVER, S-9, PHENOBARBITAL AND BETA-NAPHTHOFLAVONE, Method: PREINCUBATION): inactive; negative; mutagenic call (Test System: E. COLI, Strain/Indicator: WP2UVRA, Metabolic Activation: RAT, LIVER, S-9, SODIUM PHENOBARBITAL AND 5,6-BENZOFLAVONE, Method: PREINCUBATION): inactive; negative; mutagenic call (Test System: MOUSE LYMPHOMA, Strain/Indicator: L5178Y (TK+/TK-), Metabolic Activation: NONE, Method: SUSPENSION/PLATE): inactive; negative. reevaluation of results: negative; mutagenic call (Test System: MOUSE LYMPHOMA, Strain/Indicator: L5178Y (TK+/TK-), Metabolic Activation: RAT, LIVER, S-9, AROCLOR 1254, Method: SUSPENSION/PLATE): inactive; negative. reevaluation of results: negative

**Q.** With c1ccc(OC2CO2)cc1 (centres undefined) as the compound, how does the mutagenic call (Test System: AMES SALMONELLA TYPHIMURIUM, Strain/Indicator: TA98, Metabolic Activation: RAT LIVER MICROSOMES, Method: STANDARD PLATE) read?
**A.** active; positive

**Q.** What about the mutagenic call (Test System: AMES SALMONELLA TYPHIMURIUM, Strain/Indicator: TA1535, Metabolic Activation: RAT LIVER MICROSOMES, Method: STANDARD PLATE) of the same compound?
**A.** active; positive
